Results from patent publication US6355799B1, “Substituted benzene compounds, process for their preparation, and herbicidal and defoliant compositions containing them” (ISK Americas Incorporated, priority 1997, dated 2002).

Key:
Type in all cases: in vivo
[1] = system: field corn (Zea mays L., var. Dekalb 535, CORN); experiment: Pre-emerge test, crop safety; details: pre-emerge, 14 days after application, scale 0-100
Procedure, shortened: (§1)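 Fourteen days after spraying, crop and weed injury was graded visually from 0, no effect, to 100, every plant dead. Test substances were dissolved in acetone and applied at 15–1000 g ai/ha with a flat-fan nozzle. Application was either pre-emergence, one day after sowing, or post-emergence at the 2–3 leaf stage.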

[2] = system: upland rice (Oryza sp., var. Tebonnet, RICE); experiment: Pre-emerge test, crop safety; details: pre-emerge, 14 days after application, scale 0-100
Procedure, shortened: as §1

[3] = system: field corn (Zea mays L., var. Dekalb 535, CORN); experiment: Post-emerge test, crop safety; details: post-emerge, 14 days after application, rating scale 0-100
Procedure, shortened: (§2)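 Plants grown in 10 cm pots of sandy loam mix received acetone-dissolved compounds through a moving flat-fan nozzle. Doses ranged from 15 to 1000 g ai/ha. Pre-emerge pots were seeded one day earlier, post-emerge pots 8–21 days earlier. Fourteen days on, each pot was graded 0–100 for damage.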

[4] = system: upland rice (Oryza sp., var. Tebonnet, RICE); experiment: Post-emerge test, crop safety; details: post-emerge, 14 days after application, rating scale 0-100
Procedure, shortened: as §2

[5] = system: green foxtail (Setaria viridis, SETVI); experiment: Pre-emerge test, greenhouse herbicide activity screening; details: pre-emerge, 14 days after application, scale 0-100
Procedure, shortened: (§3)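 Rating: 0–100 visual injury, 14 DAA. Application: acetone, 187 l/ha, 15–1000 g ai/ha, flat-fan track sprayer with nozzle 40–45 cm above soil or canopy. Post-emerge runs used 0.25% v/v surfactant on 2–3 leaf plants.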

[6] = system: lambsquarters (Chenopodium album, CHEAL); experiment: as above; details: pre-emerge, 14 days after application, scale 0-100
Procedure, shortened: as §3

[7] = system: sicklepod (Cassia obtusifolia, CASOB); experiment: as above; details: pre-emerge, 14 days after application, scale 0-100
Procedure, shortened: as §3

[8] = system: barnyardgrass (Echinochloa crus-galli, ECHCG); experiment: as above; details: pre-emerge, 14 days after application, scale 0-100
Procedure, shortened: as §3

[9] = system: large crabgrass (Digitaria sanguinalis, DIGSA); experiment: as above; details: pre-emerge, 14 days after application, scale 0-100
Procedure, shortened: as §3

[10] = system: ivyleaf morningglory (Ipomoea hederacea, IPOHE); experiment: as above; details: pre-emerge, 14 days after application, scale 0-100
Procedure, shortened: as §3

[11] = system: velvetleaf (Abutilon theophrasti, ABUTH); experiment: as above; details: pre-emerge, 14 days after application, scale 0-100
Procedure, shortened: as §3

[12] = system: redroot pigweed (Amaranthus retroflexus, AMARE); experiment: as above; details: pre-emerge, 14 days after application, scale 0-100
Procedure, shortened: as §2

[13] = system: green foxtail (Setaria viridis, SETVI); experiment: Post-emerge test, greenhouse herbicide activity screening; details: post-emerge, 14 days after application, rating scale 0-100
Procedure, shortened: (§4)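 Sandy loam pots; pre-emerge: sown 1 d pre-spray, surface-watered after, then bottom-watered. Post-emerge: sown 8–21 d before, 2–3 leaf stage, + 0.25% v/v NIS, bottom-watered. Acetone, 187 l/ha track spray, 15–1000 g ai/ha. 0–100 injury score, day 14.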

[14] = system: lambsquarters (Chenopodium album, CHEAL); experiment: as above; details: post-emerge, 14 days after application, rating scale 0-100
Procedure, shortened: as §4

[15] = system: johnsongrass (Sorghum halepense, SORHA); experiment: as above; details: post-emerge, 14 days after application, rating scale 0-100
Procedure, shortened: as §4

[16] = system: sicklepod (Cassia obtusifolia, CASOB); experiment: as above; details: post-emerge, 14 days after application, rating scale 0-100
Procedure, shortened: as §4

[17] = system: barnyardgrass (Echinochloa crus-galli, ECHCG); experiment: as above; details: post-emerge, 14 days after application, rating scale 0-100
Procedure, shortened: as §4

[18] = system: large crabgrass (Digitaria sanguinalis, DIGSA); experiment: as above; details: post-emerge, 14 days after application, rating scale 0-100
Procedure, shortened: as §4

[19] = system: ivyleaf morningglory (Ipomoea hederacea, IPOHE); experiment: as above; details: post-emerge, 14 days after application, rating scale 0-100
Procedure, shortened: as §4

[20] = system: velvetleaf (Abutilon theophrasti, ABUTH); experiment: as above; details: post-emerge, 14 days after application, rating scale 0-100
Procedure, shortened: as §4

[21] = system: redroot pigweed (Amaranthus retroflexus, AMARE); experiment: as above; details: post-emerge, 14 days after application, rating scale 0-100
Procedure, shortened: as §4

## COc1c(Cl)cc(F)c(-n2c(=O)cc(C(F)(F)F)n(C)c2=O)c1NC(=O)C=Cc1ccccc1[N+](=O)[O-] [2-126]
[1]; 63 g ai/ha
  phytotoxicity rating CORN (crop damage): 0
[1]; 250 g ai/ha
  phytotoxicity rating CORN (crop damage): 5
[2]; 63 g ai/ha
  phytotoxicity rating RICE (crop damage): 10
[2]; 250 g ai/ha
  phytotoxicity rating RICE (crop damage): 60
[3]; 63 g ai/ha
  CORN phytotoxicity rating (crop damage): 10
[3]; 250 g ai/ha
  CORN phytotoxicity rating (crop damage): 10
[4]; 63 g ai/ha
  RICE phytotoxicity rating (crop damage): 0
[4]; 250 g ai/ha
  RICE phytotoxicity rating (crop damage): 50
[5]; 63 g ai/ha
  phytotoxicity rating SETVI: 40
[5]; 250 g ai/ha
  phytotoxicity rating SETVI: 100
[6]; 63 g ai/ha
  phytotoxicity rating CHEAL: 100
[6]; 250 g ai/ha
  phytotoxicity rating CHEAL: 100
[7]; 63 g ai/ha
  phytotoxicity rating CASOB: 10
[7]; 250 g ai/ha
  phytotoxicity rating CASOB: 70
[8]; 63 g ai/ha
  phytotoxicity rating ECHCG: 10
[8]; 250 g ai/ha
  phytotoxicity rating ECHCG: 40
[9]; 63 g ai/ha
  phytotoxicity rating DIGSA: 30
[9]; 250 g ai/ha
  phytotoxicity rating DIGSA: 90
[10]; 63 g ai/ha
  phytotoxicity rating IPOHE: 10
[10]; 250 g ai/ha
  phytotoxicity rating IPOHE: 90
[11]; 63 g ai/ha
  phytotoxicity rating ABUTH: 100
[11]; 250 g ai/ha
  phytotoxicity rating ABUTH: 100
[12]; 63 g ai/ha
  phytotoxicity rating AMARE: 100
[12]; 250 g ai/ha
  phytotoxicity rating AMARE: 100
[13]; 63 g ai/ha
  SETVI phytotoxicity rating: 30
[13]; 250 g ai/ha
  SETVI phytotoxicity rating: 40
[14]; 63 g ai/ha
  CHEAL phytotoxicity rating: 80
[14]; 250 g ai/ha
  CHEAL phytotoxicity rating: 95
[15]; 63 g ai/ha
  SORHA phytotoxicity rating: 0
[15]; 250 g ai/ha
  SORHA phytotoxicity rating: 10
[16]; 63 g ai/ha
  CASOB phytotoxicity rating: 60
[16]; 250 g ai/ha
  CASOB phytotoxicity rating: 60
[17]; 63 g ai/ha
  ECHCG phytotoxicity rating: 0
[17]; 250 g ai/ha
  ECHCG phytotoxicity rating: 10
[18]; 63 g ai/ha
  DIGSA phytotoxicity rating: 20
[18]; 250 g ai/ha
  DIGSA phytotoxicity rating: 30
[19]; 63 g ai/ha
  IPOHE phytotoxicity rating: 80
[19]; 250 g ai/ha
  IPOHE phytotoxicity rating: 100
[20]; 63 g ai/ha
  ABUTH phytotoxicity rating: 90
[20]; 250 g ai/ha
  ABUTH phytotoxicity rating: 100
[21]; 63 g ai/ha
  AMARE phytotoxicity rating: 80
[21]; 250 g ai/ha
  AMARE phytotoxicity rating: 100
